In experiment [1] the target is recombinant human NF-kappaB-inducing kinase (NIK/MAP3K14) (Homo sapiens (Human), UniProt Q99558). Briefly: Inhibition of auto-phosphorylation of recombinant human NIK/MAP3K14 activity (AlphaScreen). Format: biochemical. The note with it: averaged values over all measurements on all batches. The essentials:
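AlphaScreen read-out, using anti-phospho-IKK Ser176/180 antibody, tracked NIK autophosphorylation after 1 h at 25° C. Reactions held 0.2 nM GST-NIK, 25 microM ATP and compound in 1% DMSO, Tris pH 7.5 buffer. IC50 fitted sigmoidally to blank-subtracted inhibition data.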

For experiment [2], the system named is JJN-3 cells. Description: Antiproliferative activity on JJN-3 (NIK translocated) multiple myeloma cells (CellTiter-Glo). Type of experiment: cell-based, human. The note with it: JJN-3 (NIK translocated) cells, 96 hr, averaged values, read-out: JJN-3 Proliferation inhibition (IC50 (nM)). The gist of the method:
(§1)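 Viability was read by CellTiter-Glo after 96 hr compound exposure (9-point, 1:3 serial dilutions; 0.3% DMSO final). JJN-3 and KMS12-BM cells were seeded at 15000 and 20000 per well respectively in RPMI 1640/10% FCS; blank-subtracted signals were given as percent of drug-free controls.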

For experiment [3], the system named is P-IKKα levels in L363 cells. Briefly: Effect of compounds on P-IKKα levels in L363 (NIK translocated multiple myeloma) cells. Type of experiment: cell-based, human. The note with it: averaged values, read-out: Inhibition of pIKKα_L-363 (IC50 (nM)). How it is done:
Effect of compounds on P-IKKα levels in L363 (NIK translocated multiple myeloma) cells
All compounds tested were dissolved in DMSO and further dilutions were made in culture medium. Final DMSO concentration was 1% (v/v) in cell assays. The human L363 cells (ATCC) were cultured in RPMI 1640 medium supplemented with GlutaMax and 10% fetal calf serum (PAA). Cells were routinely maintained at densities of 0.2×10^6 cells per ml-1×10^6 cells per ml at 37° C. in a humidified 5% CO2 atmosphere. Cells were passaged twice a week splitting back to obtain the low density. Cells were seeded in 96 well plates (Nunc 167008) at 2×10^6 per ml media in a volume of 75 μl per well plus 25 μl 1 μg/ml recombinant human B-cell activating factor (BAFF/BLyS/TNFSF13B). Seeded cells were incubated at 37° C. in a humidified 5% CO2 atmosphere for 24 hr. Drugs and/or solvents were added (20 μl) to a final volume of 120 μl. Following 2 hr treatment plates were removed from the incubator and cell lysis was achieved by the addition of 30 μl 5× lysis buffer followed by shaking on a plate shaker at 4° C. for 10 min. At the end of this incubation lysed cells were centrifuged at 800×g for 20 min at 4° C. and the lysate was assessed for P-IKKα levels by sandwich immuno-assay carried out in anti-rabbit antibody coated Mesoscale plates. Within an experiment, the results for each treatment were the mean of 2 replicate wells. For initial screening purposes, compounds were tested using an 8 point dilution curve (serial 1:3 dilutions). For each experiment, controls (containing MG132 and BAFF but no test drug) and a blank incubation (containing MG132 and BAFF and 10 μM ADS125117, a test concentration known to give full inhibition) were run in parallel. The blank incubation value was subtracted from all control and sample values. To determine the IC50 a sigmoidal curve was fitted to the plot of % inhibition of control P-IKKα levels versus Log10 compound concentration.

Experiment [4] relates to KMS12-BM cells. Briefly: Antiproliferative activity on KMS12-BM (NIK WT) multiple myeloma cells (CellTiter-Glo). Type of experiment: cell-based, human. Conditions: KMS12-BM (NIK WT) cells, 96 hr, averaged values, read-out: KMS-12 Proliferation inhibition (IC50 (nM)). The essentials:
as §1

[5] abbreviates: Homo sapiens, L-363, L363 cells.

Read-outs that look alike come from different tables or passages of the source. A value given as a limit tells only on which side of the number the result lay.

The record followed here is US11136311B2, “Heteroaromatic derivatives as NIK inhibitors” (Janssen Pharmaceutica NV, priority 2016, dated 2021).

Chain of recombinant human NF-kappaB-inducing kinase (NIK/MAP3K14) (Q99558 whole entry): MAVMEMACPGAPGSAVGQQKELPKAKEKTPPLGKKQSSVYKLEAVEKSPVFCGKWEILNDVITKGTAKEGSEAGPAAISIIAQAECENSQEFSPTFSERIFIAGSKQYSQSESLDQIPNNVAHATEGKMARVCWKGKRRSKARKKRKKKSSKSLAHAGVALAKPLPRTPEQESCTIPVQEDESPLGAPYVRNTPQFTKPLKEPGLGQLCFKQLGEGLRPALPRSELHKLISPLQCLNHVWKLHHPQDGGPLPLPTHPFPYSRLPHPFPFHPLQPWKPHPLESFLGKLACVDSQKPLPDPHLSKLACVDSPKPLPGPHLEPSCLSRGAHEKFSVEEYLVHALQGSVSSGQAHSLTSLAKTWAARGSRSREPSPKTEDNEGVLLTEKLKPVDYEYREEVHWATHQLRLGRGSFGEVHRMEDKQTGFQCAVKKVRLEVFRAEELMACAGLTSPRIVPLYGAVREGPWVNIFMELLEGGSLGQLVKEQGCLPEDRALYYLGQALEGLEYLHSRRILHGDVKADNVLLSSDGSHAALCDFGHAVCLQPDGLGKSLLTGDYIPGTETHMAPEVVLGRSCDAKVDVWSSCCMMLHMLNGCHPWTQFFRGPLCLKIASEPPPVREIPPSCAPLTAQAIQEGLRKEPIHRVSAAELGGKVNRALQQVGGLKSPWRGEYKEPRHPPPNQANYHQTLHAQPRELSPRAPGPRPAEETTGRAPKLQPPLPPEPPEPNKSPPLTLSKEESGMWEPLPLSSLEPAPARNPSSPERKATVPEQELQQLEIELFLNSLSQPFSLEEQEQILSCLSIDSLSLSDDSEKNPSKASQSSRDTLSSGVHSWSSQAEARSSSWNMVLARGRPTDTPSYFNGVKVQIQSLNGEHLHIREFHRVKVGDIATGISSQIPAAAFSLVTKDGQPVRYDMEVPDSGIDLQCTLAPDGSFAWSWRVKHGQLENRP

As for `C[C@]1(CO)CNc2c(C#N)cc(-c3ccnc(Nc4cc(Cl)nn4C[C@H]4CCCO4)n3)cc21` [Compound 114], the IC50 worked out at 6 nM in experiment [1]; 151 nM in experiment [2] (Homo sapiens, JJN-3, 96 h); 30 nM in experiment [3] (setting [5]); 1070 nM in experiment [4] (Homo sapiens, KMS-12-BM, 96 h).
As to `CC(C)CCc1nn(Cc2cncn2C)cc1Nc1nccc(-c2cc(C#N)c3c(c2)[C@@](C)(CO)CN3)n1` [Compound 130], the IC50 in experiment [1] was 6 nM; in experiment [2] (Homo sapiens, JJN-3, 96 h), 1000 nM; in experiment [3] (setting [5]) it was 115 nM; in experiment [4] (Homo sapiens, KMS-12-BM, 96 h), more than 10000 nM.
As for `Cc1cc(Nc2nccc(-c3cc(C#N)c4c(c3)[C@@](C)(CO)CN4)n2)nn1CC1CCCCO1` (stereo partly drawn) [Compound 70], the IC50 in experiment [1] was found to be 3.8 nM; in experiment [2], 209 nM; in experiment [3] (setting [5]), 6 nM; in experiment [4] it was 1860 nM.
Consider `CC(=O)OC[C@@]1(C)CNc2c(C#N)cc(-c3ccnc(Nc4cc(C)nn4CC4CCN(C)CC4)n3)cc21` [Compound 178], for which the IC50 in experiment [1] was 20 nM; in experiment [2] it was 98 nM; in experiment [3] (L363 cells), 141 nM; in experiment [4] it was 2340 nM.
On to `Cc1cc(Nc2nccc(-c3cc(C#N)c4c(c3)[C@@](C)(CO)CN4)n2)n(CC2COCCO2)n1` (single isomer, unassigned) [Compound 84], for which the IC50 in experiment [1] is 11 nM; in experiment [2] (Homo sapiens, JJN-3, 96 h), 437 nM; in experiment [3] (L363 cells) it was 11 nM; in experiment [4], more than 10000 nM.
Consider `CN1CCC(Cn2nc(Cl)cc2Nc2nccc(-c3cc(C#N)c4c(c3)[C@@](C)(CO)CN4)n2)CC1` [Compound 124], for which the IC50 in experiment [1] amounted to 6.8 nM; in experiment [2] (Homo sapiens, JJN-3, 96 h) it was 49 nM; in experiment [3] (setting [5]) it was 219 nM; in experiment [4] (Homo sapiens, KMS-12-BM, 96 h), 832 nM.
The like results for `Cc1cc(Nc2nccc(-c3cc(C#N)c4c(c3)[C@@](C)(CO)CN4)n2)n(CCN2CCOCC2)n1` [Compound 165] were, in that order, 8.5 nM, 1620 nM, 48 nM and more than 10000 nM.
For the compound `C[C@]1(CO)CNc2c(C#N)cc(-c3ccnc(Nc4cc(Cl)nn4CCC4CC4)n3)cc21` [Compound 115], the IC50 in experiment [1] worked out at 4.6 nM; in experiment [2] (Homo sapiens, JJN-3, 96 h), 62 nM; in experiment [3] (setting [5]), 10 nM; in experiment [4] (Homo sapiens, KMS-12-BM, 96 h), 4270 nM.
Consider `Cc1cc(Nc2nccc(-c3cc(C#N)c4c(c3)[C@@](C)(CO)CN4)n2)n(CC2(F)CCN(C)CC2)n1` [Compound 131], for which the IC50 is 5.9 nM in experiment [1]; 224 nM in experiment [2] (Homo sapiens, JJN-3, 96 h); 166 nM in experiment [3] (setting [5]); more than 10000 nM in experiment [4] (Homo sapiens, KMS-12-BM, 96 h).
For `CN(C)C(=O)c1cc(Nc2nccc(-c3cc(C#N)c4c(c3)C(C)(CO)CN4)n2)n(C)n1` (stereo not drawn) [Compound 86] the same measures were 2.6 nM, 871 nM, 15 nM and approximately 3720 nM.
For `COCCN1CCC(Cn2nc(C)cc2Nc2nccc(-c3cc(C#N)c4c(c3)[C@@](C)(CO)CN4)n2)CC1` [Compound 155] the same measures were 9.3 nM, 59 nM, 126 nM and more than 10000 nM.
For `Cc1cc(Nc2nccc(-c3cc(C#N)c4c(c3)[C@@](C)(CO)CN4)n2)n(CC2(C)COC2)n1` [Compound 111], the IC50 is 9.3 nM in experiment [1]; 355 nM in experiment [2] (Homo sapiens, JJN-3, 96 h); approximately 331 nM in experiment [3] (setting [5]); 5130 nM in experiment [4] (Homo sapiens, KMS-12-BM, 96 h).
On to `Cc1cc(Nc2nccc(-c3cc(C#N)c4c(c3)[C@@](C)(CO)CN4)n2)n(CC2CCCN(C)C2)n1` (single isomer, unassigned) [Compound 140], for which the IC50 was found to be 8.3 nM in experiment [1]; 174 nM in experiment [2]; 145 nM in experiment [3] (L363 cells); 6460 nM in experiment [4] (Homo sapiens, KMS-12-BM, 96 h).
With `CC(C)CCc1c(Nc2nccc(-c3cc(C#N)c4c(c3)[C@@](C)(CO)CN4)n2)cnn1C[C@@H]1COCCO1` [Compound 121], the IC50 in experiment [1] is 5 nM; in experiment [2] (Homo sapiens, JJN-3, 96 h), 282 nM; in experiment [3] (setting [5]), 25 nM; in experiment [4] (Homo sapiens, KMS-12-BM, 96 h) it was more than 10000 nM.
For `CC(C)CCn1nc(C#N)cc1Nc1nccc(-c2cc(C#N)c3c(c2)[C@@](C)(CO)CN3)n1` [Compound 93] the same measures were 11 nM, 182 nM, 37 nM and 457 nM.
With `Cc1cc(Nc2nccc(-c3cc(C#N)c4c(c3)[C@@](C)(CO)CN4)n2)n(CCC2(C)COC2)n1` [Compound 154], the IC50 in experiment [1] is 4.9 nM; in experiment [2] (Homo sapiens, JJN-3, 96 h), 646 nM; in experiment [3] (setting [5]) it was 15 nM; in experiment [4] (Homo sapiens, KMS-12-BM, 96 h) it was 2290 nM.
The like results for `CC(C)n1nc(Nc2nccc(-c3cc(C#N)c4c(c3)C(C)(CO)CN4)n2)cc1C(=O)NC1CCOCC1` (stereo not drawn) [Compound 35] were, in that order, 7.9 nM, 209 nM, 4 nM and more than 10000 nM.
Take `Cc1c(Nc2nccc(-c3cc(C#N)c4c(c3)[C@@](C)(CO)CN4)n2)cnn1C1CCN(C)CC1` [Compound 123]: the IC50 in experiment [1] was 1.6 nM; in experiment [2] (Homo sapiens, JJN-3, 96 h) it was 195 nM; in experiment [3] (setting [5]) it was 20 nM; in experiment [4] (Homo sapiens, KMS-12-BM, 96 h) it was approximately 447 nM.
The like results for `CC(C)CCn1nc(CO)cc1Nc1nccc(-c2cc(C#N)c3c(c2)[C@@](C)(CO)CN3)n1` [Compound 110] were, in that order, 3 nM, 138 nM, 4 nM and 2040 nM.
On to `COCCCn1nc(C)cc1Nc1nccc(-c2cc(C#N)c3c(c2)[C@@](C)(COC(C)=O)CN3)n1` [Compound 177], for which the IC50 in experiment [1] is 10 nM; in experiment [2] (Homo sapiens, JJN-3, 96 h), 81 nM; in experiment [3] (setting [5]) it was 28 nM; in experiment [4] (Homo sapiens, KMS-12-BM, 96 h), more than 10000 nM.
`Cc1cc(Nc2nccc(-c3cc(C#N)c4c(c3)[C@@](C)(CO)CN4)n2)n(CC2CCCN(C)C2)n1` (single isomer, unassigned) [Compound 141]: the IC50 is 42 nM in experiment [1], 79 nM in experiment [2], 813 nM in experiment [3] (L363 cells) and more than 10000 nM in experiment [4].
For the compound `C[C@]1(CO)CNc2c(C#N)cc(-c3ccnc(Nc4cc(Cl)nn4C[C@@H]4CCCO4)n3)cc21` [Compound 113], the IC50 came to 6.2 nM in experiment [1]; 69 nM in experiment [2] (Homo sapiens, JJN-3, 96 h); 42 nM in experiment [3] (setting [5]); 3020 nM in experiment [4] (Homo sapiens, KMS-12-BM, 96 h).
As for `CNC(=O)c1cc(Nc2nccc(-c3cc(C#N)c4c(c3)[C@@](C)(CO)CN4)n2)n(C(C)C)n1` [Compound 183], the IC50 is 22 nM in experiment [1]; 1410 nM in experiment [2] (Homo sapiens, JJN-3, 96 h); 35 nM in experiment [3] (setting [5]); approximately 9770 nM in experiment [4] (Homo sapiens, KMS-12-BM, 96 h).
Consider `CC(C)Cn1nc(P(C)(C)=O)cc1Nc1nccc(-c2cc(C#N)c3c(c2)[C@@](C)(CO)CN3)n1` [Compound 119], for which the IC50 is 9.6 nM in experiment [1]; 3160 nM in experiment [2] (Homo sapiens, JJN-3, 96 h); 43 nM in experiment [3] (setting [5]); more than 10000 nM in experiment [4] (Homo sapiens, KMS-12-BM, 96 h).
For the compound `C[C@]1(CO)CNc2c(C#N)cc(-c3ccnc(Nc4cc(Cl)nn4C[C@@H]4COCCO4)n3)cc21` [Compound 126], the IC50 is 4.8 nM in experiment [1]; 468 nM in experiment [2] (Homo sapiens, JJN-3, 96 h); 170 nM in experiment [3] (setting [5]); more than 10000 nM in experiment [4] (Homo sapiens, KMS-12-BM, 96 h).
As to `Cc1cc(Nc2nccc(-c3cc(C#N)c4c(c3)[C@@](C)(CO)CN4)n2)n(CC2CCCOC2)n1` (mixture of isomers) [Compound 94], the IC50 in experiment [1] is 5.6 nM; in experiment [2] (Homo sapiens, JJN-3, 96 h), 178 nM; in experiment [3] (setting [5]), 7 nM; in experiment [4] (Homo sapiens, KMS-12-BM, 96 h) it was 4170 nM.
For `Cc1nn(C2CCN(C)CC2)cc1Nc1nccc(-c2cc(C#N)c3c(c2)[C@@](C)(CO)CN3)n1` [Compound 122] the same measures were 6.8 nM, 479 nM, 1020 nM and approximately 1660 nM.
